Results from US20250171462A1 (NICO Therapeutics, Inc., priority 2022, published 2025).
Read-outs that look alike come from different tables or passages of the source.

Target: T1, full-length SARM1 (FL-SARM1) (Homo sapiens, UniProt Q6SZW1)
T1 sequence (Q6SZW1 28-724): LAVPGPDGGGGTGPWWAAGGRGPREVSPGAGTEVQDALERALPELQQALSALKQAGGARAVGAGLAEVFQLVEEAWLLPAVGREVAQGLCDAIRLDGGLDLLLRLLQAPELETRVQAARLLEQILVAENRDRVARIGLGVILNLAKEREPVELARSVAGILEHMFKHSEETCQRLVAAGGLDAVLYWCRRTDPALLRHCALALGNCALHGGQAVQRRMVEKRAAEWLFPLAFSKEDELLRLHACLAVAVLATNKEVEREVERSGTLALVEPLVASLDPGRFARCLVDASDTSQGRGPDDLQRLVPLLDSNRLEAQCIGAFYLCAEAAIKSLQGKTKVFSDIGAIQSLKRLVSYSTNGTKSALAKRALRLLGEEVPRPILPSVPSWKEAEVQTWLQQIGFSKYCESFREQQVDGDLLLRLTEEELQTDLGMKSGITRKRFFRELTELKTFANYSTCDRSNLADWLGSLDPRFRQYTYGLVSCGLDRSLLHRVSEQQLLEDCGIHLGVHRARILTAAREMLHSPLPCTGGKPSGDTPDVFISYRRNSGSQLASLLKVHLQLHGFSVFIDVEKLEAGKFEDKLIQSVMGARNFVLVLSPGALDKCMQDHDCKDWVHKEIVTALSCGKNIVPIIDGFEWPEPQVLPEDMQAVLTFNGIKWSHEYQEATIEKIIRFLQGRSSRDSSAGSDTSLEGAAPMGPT
Assay: FL-SARM1 cellular lysate assay (NAD/NADH-Glo detection of remaining NAD+, NMN-activated)

[1] = Activity (IC50 class), 11 point curve
[2] = Activity (μM) (IC50), 11 point curve
[3] = read-out: Activity (IC50 class), 11 point curve

Row | Compound | IC50 [1] | IC50 [2] | IC50 [3]
1 | COCC12CC(C)CC(C1)N2C(=O)Nc1cc(-c2ncccn2)c(C)cc1F (single isomer, unassigned) [Example 199, trans-N-(2-fluoro-4-methyl-5-pyrimidin-2-ylphenyl)-1-(methoxymethyl)-3-methyl-6-azabicyclo[3.1.1]heptane-6-carboxamide] | 1 to 10 µM | 4.3 µM | 
2 | COCC12CC(C)CC(C1)N2C(=O)Nc1cc(-c2ncccn2)c(C)cc1F (single isomer, unassigned) [Example 200, trans-N-(2-fluoro-4-methyl-5-pyrimidin-2-ylphenyl)-1-(methoxymethyl)-3-methyl-6-azabicyclo[3.1.1]heptane-6-carboxamide] |  | 0.1 µM | 0.0001 to 1 µM
3 | Cc1cc(F)c(NC(=O)N2CC3CC2c2ccccc23)cc1-c1cccnn1 (single isomer, unassigned) [Example 201, N-(2-fluoro-4-methyl-5-pyridazin-3-ylphenyl)-9-azatricyclo[6.2.1.02,7]undeca-2(7),3,5-triene-9-carboxamide] | 1 to 10 µM | 2 µM | 
4 | Cc1cc(F)c(NC(=O)N2CC3CC2c2ccccc23)cc1-c1cccnn1 (single isomer, unassigned) [Example 202, N-(2-fluoro-4-methyl-5-pyridazin-3-ylphenyl)-9-azatricyclo[6.2.1.02,7]undeca-2(7),3,5-triene-9-carboxamide] |  | 6.7 µM | 1 to 10 µM
5 | Cc1ccc(NC(=O)C2[C@@H]3CC[C@@]2(c2ccnn2C)C3)cc1-c1ncc(F)cn1 (single isomer, unassigned) [Example 203, N-[3-(5-fluoropyrimidin-2-yl)-4-methylphenyl]-1-(2-methylpyrazol-3-yl)bicyclo[2.1.1]hexane-5-carboxamide] | > 10 µM | > 50 µM | 
6 | Cc1ccc(NC(=O)C2[C@@H]3CC[C@@]2(c2ccnn2C)C3)cc1-c1ncc(F)cn1 (single isomer, unassigned) [Example 204, N-[3-(5-fluoropyrimidin-2-yl)-4-methylphenyl]-1-(2-methylpyrazol-3-yl)bicyclo[2.1.1]hexane-5-carboxamide] |  | 0.5 µM | 0.0001 to 1 µM
7 | Cc1ccc(NC(=O)[C@H]2CC[C@@H](C)CN2c2ncccn2)cc1-c1ncccn1 (single isomer, unassigned) [Example 205, cis-5-methyl-N-(4-methyl-3-(pyrimidin-2-yl)phenyl)-1-(pyrimidin-2-yl)piperidine-2-carboxamide] |  | 0.3 µM | 0.0001 to 1 µM
8 | Cc1ccc(NC(=O)[C@H]2CC[C@@H](C)CN2c2ncccn2)cc1-c1ncccn1 (single isomer, unassigned) [Example 206, cis-5-methyl-N-(4-methyl-3-(pyrimidin-2-yl)phenyl)-1-(pyrimidin-2-yl)piperidine-2-carboxamide] |  | 0.7 µM | 0.0001 to 1 µM
9 | Cc1ccc(NC(=O)C2COC(C)(C)CN2c2ncccn2)cc1-c1ncccn1 (single isomer, unassigned) [Example 207, 6,6-dimethyl-N-(4-methyl-3-(pyrimidin-2-yl)phenyl)-4-(pyrimidin-2-yl)morpholine-3-carboxamide] | > 10 µM | > 50 µM | 
10 | Cc1ccc(NC(=O)C2COC(C)(C)CN2c2ncccn2)cc1-c1ncccn1 (single isomer, unassigned) [Example 208, 6,6-dimethyl-N-(4-methyl-3-(pyrimidin-2-yl)phenyl)-4-(pyrimidin-2-yl)morpholine-3-carboxamide] | 1 to 10 µM | 3.3 µM | 
11 | COC(C)[C@@]12CC(C[C@@H](C)C1)N2C(=O)Nc1ccc(C(F)(F)F)c(-c2nccnn2)c1 (single isomer, unassigned) [Example 209, cis-N-(3-(1,2,4-triazin-3-yl)-4-(trifluoromethyl)phenyl)-1-(1-methoxyethyl)-3-methyl-6-azabicyclo[3.1.1]heptane-6-carboxamide] |  | 0.5 µM | 0.0001 to 1 µM
12 | COC(C)[C@@]12CC(C[C@@H](C)C1)N2C(=O)Nc1ccc(C(F)(F)F)c(-c2nccnn2)c1 (single isomer, unassigned) [Example 210, cis-N-(3-(1,2,4-triazin-3-yl)-4-(trifluoromethyl)phenyl)-1-(1-methoxyethyl)-3-methyl-6-azabicyclo[3.1.1]heptane-6-carboxamide] | > 10 µM | > 50 µM | 
13 | COC(C)[C@@]12CC(C[C@@H](C)C1)N2C(=O)Nc1ccc(C(F)(F)F)c(-c2nccnn2)c1 (single isomer, unassigned) [Example 211, cis-N-(3-(1,2,4-triazin-3-yl)-4-(trifluoromethyl)phenyl)-1-(1-methoxyethyl)-3-methyl-6-azabicyclo[3.1.1]heptane-6-carboxamide] |  | 0.004 µM | 0.0001 to 1 µM
14 | COC(C)[C@@]12CC(C[C@@H](C)C1)N2C(=O)Nc1ccc(C(F)(F)F)c(-c2nccnn2)c1 (single isomer, unassigned) [Example 212, cis-N-(3-(1,2,4-triazin-3-yl)-4-(trifluoromethyl)phenyl)-1-(1-methoxyethyl)-3-methyl-6-azabicyclo[3.1.1]heptane-6-carboxamide] | 1 to 10 µM | 9.6 µM | 
15 | Cc1cc(F)c(NC(=O)[C@@H]2CC2(F)F)cc1-c1ccccn1 (stereo in doubt) [Example 143, 2,2-difluoro-N-(2-fluoro-4-methyl-5-pyridin-2-ylphenyl)cyclopropane-1-carboxamide] | 1 to 10 µM | 1.8 µM | 
16 | COC(=O)N1C[C@@H]2C[C@H]1CN2C(=O)Nc1ccc(C)c(-c2ccccn2)c1 [Example 1, (1S,4S)-Methyl 5-((4-methyl-3-(pyridin-2-yl)phenyl)carbamoyl)-2,5-diazabicyclo[2.2.1]heptane-2-carboxylate] | > 10 µM | 23 µM | 
17 | Cc1ccc(NC(=O)N2C3CC2CN(C(C)C(F)(F)F)C3)cc1-c1ccccn1 (stereo not drawn) [Example 2, N-(4-Methyl-3-(pyridin-2-yl)phenyl)-3-(1,1,1-trifluoropropan-2-yl)-3,6-diazabicyclo[3.1.1]heptane-6-carboxamide] |  | 0.7 µM | 0.0001 to 1 µM
18 | Cc1cc(F)c(NC(=O)N2C3CC2CN(CC(F)(F)F)C3)cc1-c1ccccn1 [Example 3, N-(2-Fluoro-4-methyl-5-(pyridin-2-yl)phenyl)-3-(2,2,2-trifluoroethyl)-3,6-diazabicyclo[3.1.1]heptane-6-carboxamide] | 1 to 10 µM | 1.2 µM | 
19 | Cc1ccc(NC(=O)N2C3CC2CN(CC(F)(F)F)C3)cc1-c1ccccn1 [Example 4, N-(4-methyl-3-(pyridin-2-yl)phenyl)-3-(2,2,2-trifluoroethyl)-3,6-diazabicyclo[3.1.1]heptane-6-carboxamide] |  | 0.4 µM | 0.0001 to 1 µM
20 | Cc1ccc(NC(=O)N2C3CC2CN(CC(F)F)C3)cc1-c1ccccn1 [Example 5, 3-(2,2-difluoroethyl)-N-(4-methyl-3-(pyridin-2-yl)phenyl)-3,6-diazabicyclo[3.1.1]heptane-6-carboxamide] |  | 0.8 µM | 0.0001 to 1 µM
21 | Cc1ccc(NC(=O)N2C3CC2CN(C2CCC2)C3)cc1-c1ccccn1 [Example 6, 3-Cyclobutyl-N-(4-methyl-3-(pyridin-2-yl)phenyl)-3,6-diazabicyclo[3.1.1]heptane-6-carboxamide] | 1 to 10 µM | 4.2 µM | 
22 | CCN1CC2CC(C1)N2C(=O)Nc1ccc(C)c(-c2ccccn2)c1 [Example 7, 3-Ethyl-N-(4-methyl-3-(pyridin-2-yl)phenyl)-3,6-diazabicyclo[3.1.1]heptane-6-carboxamide] | 1 to 10 µM | 4 µM | 
23 | Cc1ccc(NC(=O)N2C3CCC2c2ccccc23)cc1-c1ccccn1 [Example 8, N-[4-Methyl-3-(2-pyridyl)phenyl]-11-azatricyclo[6.2.1.02,7]undeca-2,4,6-triene-11-carboxamide] |  | 0.06 µM | 0.0001 to 1 µM
24 | COC(=O)C12CCCC(C1)N2C(=O)Nc1ccc(C)c(-c2ccccn2)c1 (stereo not drawn) [Example 9, Methyl 6-[[4-methyl-3-(2-pyridyl)phenyl]carbamoyl]-6-azabicyclo[3.1.1]heptane-1-carboxylate] |  | 0.1 µM | 0.0001 to 1 µM
25 | Cc1ccc(NC(=O)N2[C@@H]3C[C@H](C)C[C@H]2C3)cc1-c1ccccn1 [Example 10, trans-3-Methyl-N-(4-methyl-3-(pyridin-2-yl)phenyl)-6-azabicyclo[3.1.1]heptane-6-carboxamide] |  | 0.01 µM | 0.0001 to 1 µM
26 | Cc1ccc(NC(=O)N2[C@@H]3C[C@@H](C)C[C@H]2C3)cc1-c1ccccn1 [Example 11, cis-3-Methyl-N-(4-methyl-3-(pyridin-2-yl)phenyl)-6-azabicyclo[3.1.1]heptane-6-carboxamide] |  | 0.01 µM | 0.0001 to 1 µM
27 | Cc1ccc(NC(=O)N2C[C@@H]3C[C@H]2CN3c2ccccc2)cc1-c1ccccn1 [Example 13, (1S,4S)-N-(4-methyl-3-(pyridin-2-yl)phenyl)-5-phenyl-2,5-diazabicyclo[2.2.1]heptane-2-carboxamide] |  | 0.7 µM | 0.0001 to 1 µM
